One series relates to NCI-H23 lung cells. The series can be described thus: In vitro human tumor screen, 3H-thymidine assay. Format: cell-based. The settings on record: positive control, doxorubicin 1 μM.
A short description of series [1]: Metabolic clearance and tolerability of iron dextran, intravenous infusion. Also noted: species or system cynomolgus monkeys (Macaca fascicularis). The settings on record: cynomolgus monkey, in vivo. The protocol: Experiments on metabolic clearance rates done on cynomolgus monkeys (species Macaca fascicularis) have shown the safe use of large dosages of elemental iron derived from iron dextran. […] The administered iron dextran remained in the monkey plasma for at least 120 hours, at milligram levels. […] (See, U.S. application Ser. No. 10/888,576 incorporated herein in its entirety.) The monkey model clears the iron dextran from the system much more very rapidly, as compared to humans, because of a higher metabolic rate. Therefore, a longer plasma residence time is anticipated in humans, as has been shown in research, such as, for example, Henderson & Hillman, (1969).
Experiments on metabolic clearance rates done on cynomolgus monkeys (species Macaca fascicularis) have shown the safe use of large dosages of elemental iron derived from iron dextran. […] The monkey model clears the iron dextran from the system much more very rapidly, as compared to humans, because of a higher metabolic rate. Therefore, a longer plasma residence time is anticipated in humans, as has been shown in research, such as, for example, Henderson & Hillman, (1969).

For series [2] the following is noted: in vivo; cited from earlier work.

Where only a bound is given, the exact number is not on record here.

For `COc1cccc2c1C(=O)c1c(O)c3c(c(O)c1C2=O)C[C@@](O)(C(=O)CO)C[C@@H]3O[C@H]1C[C@H](N)[C@H](O)[C@H](C)O1` [doxorubicin], the “inhibitory effect (in words)” value in the series with NCI-H23 lung cells is listed as “high inhibitory effect”.

On to iron dextran [Base Compound], for which, in series [1], the “side effects (in words)” value is reported as “few negative side effects, i.e. abdominal swelling”. Further, the “time remaining in plasma” value in series [1] (iv) is “at least 120 hours”. Moreover, in series [2], the clearance rate was 10 to 20 mg/h and the time to clearance is at most 3 days.
